Legend:
[1] = test system: organotypic hippocampal slice cultures (CA1 pyramidal cell layer); test: Free-radical mediated injury (duroquinone), cell death by PI fluorescence; type: cell-based, Wistar rat; conditions: 100 μM duroquinone 3 h; 300 μM compound
Method: Organotypic hippocampal slice cultures were prepared according to established methods (Pringle et al. (1997), Brain Res., 755, 36-46). In brief, Wistar rat pups (8-11 days old) were decapitated and the hippocampus rapidly dissected into ice-cold Gey's balanced salt solution (Gibco Life Technologies, Paisley, UK) supplemented with 4.5 mg ml^−1 glucose. Slices were separated and plated onto Millicell CM culture inserts (4 per well) and maintained at 37° C. and 5% CO2 for 14 days. […]
Free-radical mediated injury was performed as described previously with L-Arg3,4 present pre-, during, and post-injury in treated cultures (Wilde et al. (1997, J. Neurochem., 69, 883-886). Briefly, cultures were transferred to SFM+PI with or without 300 μM L-Arg3,4 and allowed to equilibrate for 30 min prior to imaging. Any cultures in which PI fluorescence was detected at this stage were excluded from further study. Duroquinone (DQ) was dissolved in DMSO at a stock concentration of 100 mM which was then diluted 1:1000 in SFM for a final working concentration of 100 μM (final DMSO concentration of 0.1%). […]
Neuronal damage was assessed as described previously (Pringle et al. (1996), Stroke, 27, 2124-2130; Pringle et al. (1997), Brain Res., 755, 36-46). Light transmission images were captured prior to the induction of injury, and PI fluorescence images recorded at the end of the 24 h post-injury recovery period. […]

[2] = test system: organotypic hippocampal slice cultures (CA1 pyramidal cell layer); test: Experimental ischaemia (oxygen glucose deprivation), cell death by PI fluorescence; type: cell-based, Wistar rat
Method: (§1) Organotypic hippocampal slice cultures were prepared according to established methods (Pringle et al. (1997), Brain Res., 755, 36-46). In brief, Wistar rat pups (8-11 days old) were decapitated and the hippocampus rapidly dissected into ice-cold Gey's balanced salt solution (Gibco Life Technologies, Paisley, UK) supplemented with 4.5 mg ml^−1 glucose. Slices were separated and plated onto Millicell CM culture inserts (4 per well) and maintained at 37° C. and 5% CO2 for 14 days. Maintenance medium consisted of 25% heat-inactivated horse serum, 25% Hank's balanced salt solution (HBSS) and 50% minimum essential medium with added Earle's salts MM, ICN Biomedicals, Basingstoke, UK) supplemented with 1 mM glutamine and 4.5 mg ml^−1 glucose. Medium was changed every 3-4 days.
Experimental ischaemia or oxygen glucose deprivation was performed as described previously (Pringle et al. (1996), Stroke, 27, 2124-2130). Briefly, cultures were transferred to serum-free media (SFM, 75% MEM, 25% HDSS supplemented with 1 mM glutamine and 4.5 mg ml^−1 glucose) containing 5 μg ml^−1 of the fluorescent exclusion dye propidium iodide (PI). Cultures were allowed to equilibrate in SFM for 30 min prior to imaging, with or without L-Arg3,4. PI fluorescence was detected using a Leica inverted microscope as described below. Any cultures in which PI fluorescence was detected at this stage were excluded from further study. Ischaemia was induced by transferring cultures to glucose-free media (MEM with Earl's salts without glucose and supplemented with 1 mM glutamine) saturated with 95% N2 and 5% CO2. Culture plates (without lids) were then sealed into an airtight chamber (Billups-Rothenberg, Del Mar, Calif.) gassed with 95% N2 and 5% CO2 at 10 L min^−1 for 10 min before being sealed and placed at 37° C. for 50 min. At the end of the ischaemia, cultures were returned to normoxic SFM+PI, with or without compound at the indicated concentrations, and placed back in the incubator for 24 h.
(§2) Neuronal damage was assessed as described previously (Pringle et al. (1996), Stroke, 27, 2124-2130; Pringle et al. (1997), Brain Res., 755, 36-46). Light transmission images were captured prior to the induction of injury, and PI fluorescence images recorded at the end of the 24 h post-injury recovery period. All images were captured on an inverted Leica DM-IRBE epifluorescence microscope (Milton Keynes, UK) fitted with a 100 W Hg lamp and standard rhodamine optics (excitation 510-560 nm; dichroic mirror […]; emission>590 nm). Images were acquired with a 5×NA 0.12 lens and a cooled Hamamatsu digital camera and digitised at 12 bit resolution for analysis in OpenLab 2.1 (Improvision, Coventry, UK) running on a Macintosh G4/400. The area of the CA1 or CA3 cell layer was determined from the transmission image, and the area of PI fluorescence in that cell layers was measured using the density slice function within OpenLab. Neuronal damage was expressed as a percentage of the area in which PI fluorescence was detected above threshold within a cell layer divided by the total area of that cell layer. Protection was calculated as the difference between the damage for a given well and the average damage in untreated controls divided by the average damage in untreated controls. Groups were compared against corresponding control groups using the two tailed Student's t-test with significance indicated as * for P<0.05, and ** for P<0.01. Data is presented as mean±s.e.mean.

[3] = previous studies, WO99/31049; cited from earlier work
[4] = test system: organotypic hippocampal slice cultures (CA1 or CA3 pyramidal cell layer); test: Excitotoxic injury by glutamate receptor agonists, cell death by PI fluorescence; type: cell-based, Wistar rat; conditions: for protection: 300 μM
Method: as §1
Excitotoxic injury was performed as previously described (Pringle et al. (1997), Brain Res., 755, 36-46) with L-Arg3,4 present pre-, during, and post-injury fin treated cultures. Cultures were transferred to SFM+PI with or without 300 μM L-Arg3,4 and allowed to equilibrate for 30 min prior to imaging. […] The medium was then exchanged for SFM+PI plus a glutamate receptor agonist (either 10 mM glutamate, 10 μM NMDA, 10 μM AMPA, or 10 μM kainate) for 3 h. After exposure, the media was again exchanged for SFM+PI containing 300 μM L-Arg3,4. Cultures were then returned to the incubator until they were assessed for cell death in the indicated region of the pyramidal cell layer 24 h post exposure.
as §2

[5] = 300 μM applied 0 min post-injury
[6] = 300 μM applied 10 min post-injury
[7] = 300 μM applied 60 min post-injury

N=C(N)NCCCC(N)C(=O)NCCCNCCCCN [L-Arg3,4, L-arginyl-3,4-spermidine]
injury (cell death in CA1) [1]: 21±5%
protection [1]: 46%
damage ([2]; 300 nM post-injury, dose study): did not reduce damage
damage ([2]; 3 μM post-injury, dose study): 19±5%
protection ([2]; 3 μM post-injury, dose study): 43%
damage ([2]; 30 μM post-injury, dose study): 11±3%
protection ([2]; 30 μM post-injury, dose study): 67%
delay of administration post-ischaemia at which still neuroprotective (therapeutic window) ([2]; 300 μM): up to 60 min
damage [2, 5]: 23±3%
protection [2, 5]: 40%
damage [2, 6]: 15±2%
protection [2, 6]: 59%
damage ([2]; 300 μM applied 30 min post-injury): 28±4%
protection ([2]; 300 μM applied 30 min post-injury, not statistically significant): 26%
damage [2, 7]: 26±3%
protection [2, 7]: 30%
damage ([2]; 300 μM post-injury, dose study): 23±3%
protection ([2]; 300 μM post-injury, dose study): 32%
protection ([2]; 300 μM pre-, during, and post-ischaemia (PDP)): 39%
neurodegeneration (PI area as % of cell layer) ([2]; 300 μM pre-, during, and post-ischaemia (PDP), 1 h ischaemia, 24 h): 23±4%
effect on blood pressure, heart rate, respiration, motor function [3]: did not affect blood pressure, heart rate or respiration, or result in adverse motor function
cell death (damage) in CA1 ([4]; 10 μM AMPA 3 h, 300 μM compound): 19±4%
protection ([4]; 10 μM AMPA, CA1): 53%
cell death (damage) in CA1 ([4]; 10 μM NMDA 3 h, 300 μM compound): 16±2%
protection ([4]; 10 μM NMDA, CA1): 38%
cell death (damage) in CA3 ([4]; 10 μM kainate 3 h, 300 μM compound): 11±4%
protection ([4]; 10 μM kainate, CA3): 61%
cell death (damage) in CA1 ([4]; 10 mM Glut 3 h, 300 μM compound pre-, during, post-injury): 13±3%
protection ([4]; 10 mM Glut, CA1): 41%
